Measured values as given in patent US5597806A, “Antifungal agents” (Merck & Co., Inc., priority 1995, dated 1997).
Converted amounts (≈) assume the structure as drawn. Where two headings read alike, the source gives them in different places.

Tests used:
Assay in all cases: broth microdilution assay
[1] = system: Aspergillus fumigatus (MF4839); format: cell-based; conditions: for MIC: complete clearing
Experimental: (§1) In the microbroth dilution assay, the selected microorganisms were grown by streaking a yeast culture on Sabouraud Dextrose agar (SDA) and incubating for 24-48 hr at 35°-37° C. Thereafter, 3-5 characteristic colonies were selected and transferred to CM-YNB+0.1% Dextrose Agar plates (1% Bactopeptone, 0.5% yeast extract, 6.7 g/L yeast nitrogen base with amino acids, 1 μM adenine, 0.1% dextrose, and 1.5% Bacto agar) and incubated overnight at 35°-37° C. From the regrowth, 3 to 5 colonies were selected and suspended in 5 ml of CM-YNBD media (same as above, only without agar) and incubated for 4-6 hr at 35°-37° C. shaking at 225 rpm. The broth cultures were adjusted spectrophotometrically to 86% transmission resulting in a concentration of 1-5×10^6 cfu/ml which was further diluted 1:100 (1:50 for Aspergillus) in CM-YNBD to obtain a concentration of 1-5 ×10^4 cfu/ml to use as inocula.
(§2) The test compounds were prepared as a stock solution of 512 μg/ml in 10% DMSO and 75 μl of said solution delivered to a well in column one of each 96 well, U-bottomed microtiter plate that already contained 75 μl of CM-YNBD media per well. In the first run of the assay, Compound I was then serially diluted two fold from column 1 to column 12 to yield concentrations from 256 μg/ml to 0,125 μg/ml.
as §2, with “Amphotericin B, the control compound, was” for “The test compounds were”, “The compound” for “In the first run of the assay, Compound I”
(§3) The plates containing the diluted compounds were then inoculated with 75 μl/well of the appropriate microorganism resulting in a further 2-fold dilution such that the final concentration of test compounds ranged between 128 and 0.06 μg/ml. The plates were incubated for 48 hours at 35°-37° C. with MIC (minimum inhibitory concentration) determinations carried out after 24 hours of incubation. Growth and sterility controls for each organism and sterility checks for the compounds also were carried out. In three cases, a modified MIC endpoint (MIC2) was used.
(§4) No MFC values are indicated for Aspergillus fumigatus since colony counts are unreliable with filamentous species. Instead, a Minimum Effective Concentration (MEC) is reported for A. fumigatus. The MEC is defined as the lowest concentration of drug which effects a severe morphological change in the cells. The MEC is scored […] by direct observation of the microtiter plate wells after 24 hours and reflects microscopic alterations in cell morphology (Kurtz et al. AAC:38:1480-1489[94]).
(§5) In this run, Compound I was titrated from 64-0.03 μg/ml and Compound II was titrated from 128-0.06 μg/ml.

[2] = system: Aspergillus fumigatus (MF5668); format: cell-based; conditions: for MIC: complete clearing
Experimental: as §1, §2
as §2, with “Amphotericin B, the control compound, was” for “The test compounds were”, “The compound” for “In the first run of the assay, Compound I”
as §3, §4, §5

[3] = system: Candida tropicalis (MY1124); format: cell-based
Experimental: as §1, §2
as §2, with “Amphotericin B, the control compound, was” for “The test compounds were”, “The compound” for “In the first run of the assay, Compound I”
as §3
(§6) After recording MICs at 24 hours, samples are withdrawn to determine the MFC. The microtiter plates were shaken gently to resuspend the cells and […] sample was transferred from each well of the 96 well plate to the surface of a single reservoir inoculum plate containing 15 ml of SDA. The inoculated SDA and corresponding microtiter plates were incubated for 24 hours at 35°-37° C. For Cryptococcus neoformans, the MFC plates were inoculated after reading the 48 hour MICs and incubated for 48 hours before reading the MFC. The MFC is the lowest concentration of compound at which either no growth or growth of ≤3 colonies occurs.
as §5

[4] = system: Candida albicans (CLY539); format: cell-based; conditions: for MIC: * = MIC2, prominent decrease in turbidity
Experimental: as §1, §2
as §2, with “Amphotericin B, the control compound, was” for “The test compounds were”, “The compound” for “In the first run of the assay, Compound I”
as §3, §6, §5

[5] = system: Candida albicans (CA2); format: cell-based; conditions: comparative run, I 64-0.03, II 128-0.06 μg/ml, complete clearing
Experimental: as §1, §2
as §2, with “Amphotericin B, the control compound, was” for “The test compounds were”, “The compound” for “In the first run of the assay, Compound I”
as §3, §6, §5

[6] = system: Saccharomyces cerevisiae (MY2140); format: cell-based; conditions: for MIC: complete clearing
Experimental: as §1, §2
as §2, with “Amphotericin B, the control compound, was” for “The test compounds were”, “The compound” for “In the first run of the assay, Compound I”
as §3, §6, §5

[7] = system: Cryptococcus neoformans (MY2062); format: cell-based; conditions: complete clearing
Experimental: as §1, §2
as §2, with “Amphotericin B, the control compound, was” for “The test compounds were”, “The compound” for “In the first run of the assay, Compound I”
as §3, §6, §5

[8] = system: Candida glabrata (MY1381); format: cell-based; conditions: Nakaseomyces glabratus; for MIC: complete clearing
Experimental: as §1, §2
as §2, with “Amphotericin B, the control compound, was” for “The test compounds were”, “The compound” for “In the first run of the assay, Compound I”
as §3, §6, §5

[9] = system: Candida guillermondii (MY1019); format: cell-based; conditions: for MIC: complete clearing
Experimental: as §1, §2
as §2, with “Amphotericin B, the control compound, was” for “The test compounds were”, “The compound” for “In the first run of the assay, Compound I”
as §3, §6, §5

[10] = system: Candida albicans (MY1055); format: cell-based
Experimental: as §1, §2
as §2, with “Amphotericin B, the control compound, was” for “The test compounds were”, “The compound” for “In the first run of the assay, Compound I”
as §3, §6, §5

[11] = system: Saccharomyces cerevisiae (MY2141); format: cell-based; conditions: for MIC: complete clearing
Experimental: as §1, §2
as §2, with “Amphotericin B, the control compound, was” for “The test compounds were”, “The compound” for “In the first run of the assay, Compound I”
as §3, §6, §5

[12] = system: Candida tropicalis (MY1012); format: cell-based; conditions: for MIC: complete clearing
Experimental: as §1, §2
as §2, with “Amphotericin B, the control compound, was” for “The test compounds were”, “The compound” for “In the first run of the assay, Compound I”
as §3, §6, §5

[13] = system: Candida parapsilosis (MY1010); format: cell-based; conditions: Lodderomyces parapsilosis
Experimental: as §1, §2
as §2, with “Amphotericin B, the control compound, was” for “The test compounds were”, “The compound” for “In the first run of the assay, Compound I”
as §3, §6, §5

[14] = system: Candida pseudotroplicalis (MY2099); format: cell-based, Candida pseudotropicalis; conditions: for MIC: complete clearing
Experimental: as §1, §2
as §2, with “Amphotericin B, the control compound, was” for “The test compounds were”, “The compound” for “In the first run of the assay, Compound I”
as §3
as §6, with “The MFC is the lowest concentration of compound at which either no growth or growth of ≤3 colonies occurs.” left out

[15] = comparative run, I 64-0.03, II 128-0.06 μg/ml
[16] = comparative run, II 128-0.06 μg/ml, * = MIC2, prominent decrease in turbidity, read-out: MIC2
[17] = first run, 128-0.06 μg/ml, 24 h
[18] = first run, lowest concentration effecting severe morphological change, 24 h, read-out: MEC
[19] = first run, 128-0.06 μg/ml, 24 h, * = MIC2, prominent decrease in turbidity, read-out: MIC2
[20] = first run, 128-0.06 μg/ml, no growth or ≤3 colonies
[21] = comparative run, I 64-0.03 μg/ml, complete clearing, read-out: MIC

SMILES: C=C(CCC(C)C1CCC2(C(=O)O)C3=C(CCC12C)C1(C)CCC(OC2OC(CO)C(O)C(O)C2O)C(=C)C1CC3)C(C)C (stereo not shown) [Compound II]
- MIC [1, 15]: > 128 µg/mL
- MIC [2, 15]: > 128 µg/mL
- MIC ([3]; comparative run, II 128-0.06 μg/ml, complete clearing, read-out: MIC): 0.5 µg/mL (≈ 0.811 µM)
- MIC [4, 15]: > 128 µg/mL
- MIC [5]: > 128 µg/mL
- MIC [6, 15]: 1 µg/mL (≈ 1.62 µM)
- MIC [7, 15]: > 128 µg/mL
- MIC [8, 15]: 0.5 µg/mL (≈ 0.811 µM)
- MIC [9, 15]: > 128 µg/mL
- MIC [10, 16]: 1 µg/mL (≈ 1.62 µM)
- MIC [11, 15]: < 0.06 µg/mL
- MIC [12, 15]: 8 µg/mL (≈ 13 µM)
- MIC [13, 16]: 2 µg/mL (≈ 3.24 µM)
- MIC [14, 15]: < 0.06 µg/mL

SMILES: C=C(CCC(C)C1CC(O)C2(C(=O)O)C3=C(CCC12C)C1(C)CCC(OC2OC(CO)C(OC)C(O)C2O)C(=C)C1CC3)C(C)C (stereo not shown) [Compound I]
- MIC [1, 15]: > 64 µg/mL
- MIC [1, 17]: > 128 µg/mL
- minimal effective concentration [1, 18]: 0.25 µg/mL
- MIC [2, 15]: > 64 µg/mL
- MIC [2, 17]: > 128 µg/mL
- minimal effective concentration [2, 18]: < 0.06 µg/mL
- MIC ([3]; comparative run, I 64-0.03 μg/ml, * = MIC2, prominent decrease in turbidity, read-out: MIC2): < 0.03 µg/mL
- MIC [3, 19]: 0.25 µg/mL (≈ 0.386 µM)
- MFC [3, 20]: 0.125 µg/mL (≈ 0.193 µM)
- MIC [4, 15]: < 0.03 µg/mL
- MIC [4, 17]: 0.5 µg/mL (≈ 0.773 µM)
- MFC [4, 20]: > 128 µg/mL
- MIC [5]: > 64 µg/mL
- MIC [6, 15]: 4 µg/mL (≈ 6.18 µM)
- MIC [6, 17]: 8 µg/mL (≈ 12.4 µM)
- MFC [6, 20]: 4 µg/mL (≈ 6.18 µM)
- MIC [7, 15]: > 64 µg/mL
- MIC ([7]; first run, 128-0.06 μg/ml): 32 µg/mL (≈ 49.5 µM)
- MIC [8, 17]: < 0.06 µg/mL
- MFC [8, 20]: < 0.06 µg/mL
- MIC [9, 15]: > 64 µg/mL
- MIC [9, 17]: > 128 µg/mL
- MFC [9, 20]: > 128 µg/mL
- MIC [10, 21]: < 0.03 µg/mL
- MIC [10, 19]: 2 µg/mL (≈ 3.09 µM)
- MFC [10, 20]: < 0.06 µg/mL
- MIC [11, 15]: < 0.03 µg/mL
- MIC [11, 17]: < 0.06 µg/mL
- MFC [11, 20]: < 0.06 µg/mL
- MIC [12, 15]: 8 µg/mL (≈ 12.4 µM)
- MIC [12, 17]: 8 µg/mL (≈ 12.4 µM)
- MFC [12, 20]: 8 µg/mL (≈ 12.4 µM)
- MIC [13, 21]: < 0.03 µg/mL
- MIC ([13]; first run, 128-0.06 μg/ml, 24 h, complete clearing, read-out: MIC): < 0.06 µg/mL
- MFC [13, 20]: < 0.06 µg/mL
- MIC [14, 15]: < 0.03 µg/mL
- MIC [14, 17]: < 0.06 µg/mL
- MFC [14, 20]: < 0.06 µg/mL
